Measured values reported in ChEMBL document CHEMBL3351299, “Structural insights on carbonic anhydrase inhibitory action, isoform selectivity, and potency of sulfonamides and coumarins incorporating arylsulfonylureido groups” (J Med Chem, 2014).

Key:
Carbonic anhydrase 1 = Carbonic anhydrase 1 (Homo sapiens, UniProt P00915); assay: Inhibition of human recombinant carbonic anhydrase 1 preincubated for 15 mins by stopped flow CO2 hydration method
Carbonic anhydrase 9 = Carbonic anhydrase 9 (Homo sapiens, UniProt Q16790)
Carbonic anhydrase 12 = Carbonic anhydrase 12 (Homo sapiens, UniProt O43570); assay: Inhibition of human recombinant carbonic anhydrase 12 preincubated for 15 mins by stopped flow CO2 hydration method
Sequence of Carbonic anhydrase 12 (O43570 whole entry): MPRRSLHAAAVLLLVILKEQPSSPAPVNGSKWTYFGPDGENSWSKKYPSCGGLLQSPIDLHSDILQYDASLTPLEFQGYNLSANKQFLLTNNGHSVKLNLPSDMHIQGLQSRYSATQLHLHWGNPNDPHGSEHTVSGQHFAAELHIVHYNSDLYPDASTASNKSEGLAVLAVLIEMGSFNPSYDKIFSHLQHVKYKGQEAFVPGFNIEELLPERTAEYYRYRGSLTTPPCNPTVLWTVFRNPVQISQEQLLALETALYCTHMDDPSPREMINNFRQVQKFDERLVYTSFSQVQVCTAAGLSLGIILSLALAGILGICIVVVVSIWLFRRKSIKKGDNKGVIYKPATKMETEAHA

Sequence of Carbonic anhydrase 1 (P00915 whole entry): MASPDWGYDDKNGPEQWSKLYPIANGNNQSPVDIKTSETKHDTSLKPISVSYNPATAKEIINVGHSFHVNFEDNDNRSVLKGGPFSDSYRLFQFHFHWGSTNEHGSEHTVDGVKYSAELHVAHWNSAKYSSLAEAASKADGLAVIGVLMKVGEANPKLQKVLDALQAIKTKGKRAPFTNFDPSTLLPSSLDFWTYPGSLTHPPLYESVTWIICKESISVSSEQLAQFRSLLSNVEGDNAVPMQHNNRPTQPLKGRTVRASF

| Structure (SMILES) | Ki (Carbonic anhydrase 1) [nM] | Ki (Carbonic anhydrase 9) [nM] | Ki (Carbonic anhydrase 12) [nM] |
| --- | --- | --- | --- |
| Cc1cc(=O)oc2cc(NC(=O)NS(=O)(=O)c3ccc(Cl)cc3)ccc12 | 5730 | – | – |
| Cc1cc(=O)oc2cc(NC(=O)NS(=O)(=O)c3ccc(F)cc3)ccc12 | > 10000 | 23.1 | 7.7 |
| NS(=O)(=O)c1ccc(CCNC(=O)NS(=O)(=O)c2ccc(Cl)cc2)cc1 | 57.8 | 9.7 | 5.6 |
| NS(=O)(=O)c1ccc(CCNC(=O)NS(=O)(=O)c2ccccc2)cc1 | 21.6 | 9.6 | 5.9 |
| Cc1ccc(S(=O)(=O)NC(=O)NCCc2ccc(S(N)(=O)=O)cc2)cc1 | 67.1 | 9.2 | 6 |
| NS(=O)(=O)c1ccc(CCNC(=O)NS(=O)(=O)c2ccccc2Cl)cc1 | 52.8 | 78.9 | 5.1 |
| Cc1cc(=O)oc2cc(NC(=O)NS(=O)(=O)c3ccccc3Cl)ccc12 | 2380 | 87.8 | 7.6 |
| Cc1ccccc1S(=O)(=O)NC(=O)Nc1ccc2c(C)cc(=O)oc2c1 | 4970 | – | 8.9 |
| Cc1cc(=O)oc2cc(NC(=O)NS(=O)(=O)c3ccccc3)ccc12 | > 10000 | 90.7 | 68.5 |
| NS(=O)(=O)c1ccc(CCNC(=O)NS(=O)(=O)c2ccc(F)cc2)cc1 | 82.6 | 68.4 | 6.8 |
| Cc1ccc(S(=O)(=O)NC(=O)Nc2ccc3c(C)cc(=O)oc3c2)cc1 | > 10000 | – | 9.4 |
| Cc1ccccc1S(=O)(=O)NC(=O)NCCc1ccc(S(N)(=O)=O)cc1 | 64.2 | – | 6.4 |
